Measurements as given in paper PMC7156458, “Synthetic biology based construction of biological activity-related library of fungal decalin-containing diterpenoid pyrones” (Nature Communications, 2020).

Target: Aβ42 (Homo sapiens, UniProt P05067)
Experiment: Th-T (thioflavin-T) assay of Aβ42 aggregation
Assay type: biochemical

Sequence of Aβ42 (P05067 672-713): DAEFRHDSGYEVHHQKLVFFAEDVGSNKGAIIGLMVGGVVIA

## C=C1CCC2C(C)(CCC=C(C)C)C(O)CCC2(C)C1Cc1c(OC)oc(CO)c(C(=O)OC)c1=O (stereo not drawn) [Compound 13]
Column suffix _20, reading M101
  Fig. 7a Th-T reading, mean of three wells: 1.039
Column suffix _20, reading M102
  Fig. 7a Th-T reading, mean of three wells: 1.036
Column suffix _20, reading M103
  Fig. 7a Th-T reading, mean of three wells: 1.04
Column suffix _20, reading M104
  Fig. 7a Th-T reading, mean of three wells: 1.043
Column suffix _20, reading M105
  Fig. 7a Th-T reading, mean of three wells: 1.05
Column suffix _20, reading M106
  Fig. 7a Th-T reading, mean of three wells: 1.043
Column suffix _50, measurement M19
  Th-T fluorescence, mean of three wells (Fig. 7a): 0.2105
Column suffix _50, measurement M20
  Th-T fluorescence, mean of three wells (Fig. 7a): 0.229
Column suffix _50, measurement M21
  Th-T fluorescence, mean of three wells (Fig. 7a): 0.2537
Column suffix _50, measurement M22
  Th-T fluorescence, mean of three wells (Fig. 7a): 0.2749
Column suffix _50, measurement M23
  Th-T fluorescence, mean of three wells (Fig. 7a): 0.2968
Column suffix _50, measurement M24
  Th-T fluorescence, mean of three wells (Fig. 7a): 0.3154
Column suffix _50, measurement M25
  Th-T fluorescence, mean of three wells (Fig. 7a): 0.3353
Column suffix _50, measurement M26
  Th-T fluorescence, mean of three wells (Fig. 7a): 0.3518
Column suffix _50, measurement M27
  Th-T fluorescence, mean of three wells (Fig. 7a): 0.3638
Column suffix _50, measurement M28
  Th-T fluorescence, mean of three wells (Fig. 7a): 0.3753
Column suffix _50, measurement M29
  Th-T fluorescence, mean of three wells (Fig. 7a): 0.3846
Column suffix _50, reading M1
  Th-T assay signal, mean of three wells (Fig. 7a): 0.5109
Column suffix _50, reading M2
  Th-T assay signal, mean of three wells (Fig. 7a): 0.3694
Column suffix _50, reading M3
  Th-T assay signal, mean of three wells (Fig. 7a): 0.2987
Column suffix _50, reading M4
  Th-T assay signal, mean of three wells (Fig. 7a): 0.2463
Column suffix _50, reading M5
  Th-T assay signal, mean of three wells (Fig. 7a): 0.2182
Column suffix _50, reading M6
  Th-T assay signal, mean of three wells (Fig. 7a): 0.2003
Column suffix _50, reading M7
  Th-T assay signal, mean of three wells (Fig. 7a): 0.1883
Column suffix _50, reading M8
  Th-T assay signal, mean of three wells (Fig. 7a): 0.1784
Column suffix _50, reading M9
  Th-T assay signal, mean of three wells (Fig. 7a): 0.17
Column suffix _50, reading M10
  Th-T assay signal, mean of three wells (Fig. 7a): 0.1689
Column suffix _50, reading M11
  Th-T assay signal, mean of three wells (Fig. 7a): 0.1659
Column suffix _50, reading M12
  Th-T assay signal, mean of three wells (Fig. 7a): 0.1664
Column suffix _50, reading M13
  Th-T assay signal, mean of three wells (Fig. 7a): 0.1648
Column suffix _50, reading M14
  Th-T assay signal, mean of three wells (Fig. 7a): 0.1691
Column suffix _50, reading M15
  Th-T assay signal, mean of three wells (Fig. 7a): 0.173
Column suffix _50, reading M16
  Th-T assay signal, mean of three wells (Fig. 7a): 0.1783
Column suffix _50, reading M17
  Th-T assay signal, mean of three wells (Fig. 7a): 0.1848
Column suffix _50, reading M18
  Th-T assay signal, mean of three wells (Fig. 7a): 0.1952
Column suffix _50, reading M85
  Fig. 7a Th-T reading, mean of three wells: 0.4685
Column suffix _50, reading M86
  Fig. 7a Th-T reading, mean of three wells: 0.4692
Column suffix _50, reading M87
  Fig. 7a Th-T reading, mean of three wells: 0.4718
Column suffix _50, reading M88
  Fig. 7a Th-T reading, mean of three wells: 0.4737
Column suffix _50, reading M89
  Fig. 7a Th-T reading, mean of three wells: 0.4759
Column suffix _50, reading M90
  Fig. 7a Th-T reading, mean of three wells: 0.4735
Column suffix _50, reading M91
  Fig. 7a Th-T reading, mean of three wells: 0.4713
Column suffix _50, reading M92
  Fig. 7a Th-T reading, mean of three wells: 0.4706
Column suffix _50, reading M93
  Fig. 7a Th-T reading, mean of three wells: 0.4737
Column suffix _50, reading M94
  Fig. 7a Th-T reading, mean of three wells: 0.4775
Column suffix _50, reading M95
  Fig. 7a Th-T reading, mean of three wells: 0.4772
Column suffix _50, reading M96
  Fig. 7a Th-T reading, mean of three wells: 0.4744
Column suffix _50, reading M97
  Fig. 7a Th-T reading, mean of three wells: 0.4689
Column suffix _50, reading M98
  Fig. 7a Th-T reading, mean of three wells: 0.4718
Column suffix _50, reading M99
  Fig. 7a Th-T reading, mean of three wells: 0.4742
Column suffix _50, reading M100
  Fig. 7a Th-T reading, mean of three wells: 0.4783
Column suffix _50, reading M101
  Fig. 7a Th-T reading, mean of three wells: 0.4707
Column suffix _50, reading M102
  Fig. 7a Th-T reading, mean of three wells: 0.471
Column suffix _50, reading M103
  Fig. 7a Th-T reading, mean of three wells: 0.4747
Column suffix _50, reading M104
  Fig. 7a Th-T reading, mean of three wells: 0.4762
Column suffix _50, reading M105
  Fig. 7a Th-T reading, mean of three wells: 0.477
Column suffix _50, reading M106
  Fig. 7a Th-T reading, mean of three wells: 0.4781
Compound at 10, reading M41 of time course
  Th-T fluorescence, mean of three wells: 1.211
Compound at 10, reading M42 of time course
  Th-T fluorescence, mean of three wells: 1.2969
Compound at 10, reading M43 of time course
  Th-T fluorescence, mean of three wells: 1.3329
Compound at 10, reading M44 of time course
  Th-T fluorescence, mean of three wells: 1.377
Compound at 10, reading M45 of time course
  Th-T fluorescence, mean of three wells: 1.405
Compound at 10, reading M46 of time course
  Th-T fluorescence, mean of three wells: 1.436
Compound at 10, reading M47 of time course
  Th-T fluorescence, mean of three wells: 1.47
Compound at 10, reading M48 of time course
  Th-T fluorescence, mean of three wells: 1.487
Compound at 10, reading M49 of time course
  Th-T fluorescence, mean of three wells: 1.496
Compound at 10, reading M50 of time course
  Th-T fluorescence, mean of three wells: 1.5062
Compound at 10, reading M51 of time course
  Th-T fluorescence, mean of three wells: 1.523
Compound at 10, reading M52 of time course
  Th-T fluorescence, mean of three wells: 1.537
Compound at 10, reading M53 of time course
  Th-T fluorescence, mean of three wells: 1.531
Compound at 10, reading M54 of time course
  Th-T fluorescence, mean of three wells: 1.542
Compound at 10, reading M55 of time course
  Th-T fluorescence, mean of three wells: 1.541
Compound at 10, reading M56 of time course
  Th-T fluorescence, mean of three wells: 1.545
Compound at 10, reading M57 of time course
  Th-T fluorescence, mean of three wells: 1.551
Compound at 10, reading M58 of time course
  Th-T fluorescence, mean of three wells: 1.551
Compound at 10, reading M59 of time course
  Th-T fluorescence, mean of three wells: 1.549
Compound at 10, reading M60 of time course
  Th-T fluorescence, mean of three wells: 1.541
Compound at 10, reading M61 of time course
  Th-T fluorescence, mean of three wells: 1.554
Compound at 10, reading M62 of time course
  Th-T fluorescence, mean of three wells: 1.56
Compound at 20, reading M41 of time course
  Th-T fluorescence, mean of three wells: 0.3859
Compound at 20, reading M42 of time course
  Th-T fluorescence, mean of three wells: 0.4228
Compound at 20, reading M43 of time course
  Th-T fluorescence, mean of three wells: 0.4511
Compound at 20, reading M44 of time course
  Th-T fluorescence, mean of three wells: 0.4829
Compound at 20, reading M45 of time course
  Th-T fluorescence, mean of three wells: 0.5147
Compound at 20, reading M46 of time course
  Th-T fluorescence, mean of three wells: 0.5564
Compound at 20, reading M47 of time course
  Th-T fluorescence, mean of three wells: 0.5957
Compound at 20, reading M48 of time course
  Th-T fluorescence, mean of three wells: 0.6248
Compound at 20, reading M49 of time course
  Th-T fluorescence, mean of three wells: 0.6553
Compound at 20, reading M50 of time course
  Th-T fluorescence, mean of three wells: 0.6948
Compound at 20, reading M51 of time course
  Th-T fluorescence, mean of three wells: 0.7326
Compound at 20, reading M52 of time course
  Th-T fluorescence, mean of three wells: 0.7726
Compound at 20, reading M53 of time course
  Th-T fluorescence, mean of three wells: 0.8004
Compound at 20, reading M54 of time course
  Th-T fluorescence, mean of three wells: 0.8343
Compound at 20, reading M55 of time course
  Th-T fluorescence, mean of three wells: 0.8641
Compound at 20, reading M56 of time course
  Th-T fluorescence, mean of three wells: 0.9063
Compound at 20, reading M57 of time course
  Th-T fluorescence, mean of three wells: 0.941
Compound at 20, reading M58 of time course
  Th-T fluorescence, mean of three wells: 0.9604
Compound at 20, reading M59 of time course
  Th-T fluorescence, mean of three wells: 0.9808
Compound at 20, reading M60 of time course
  Th-T fluorescence, mean of three wells: 0.9918
Compound at 20, reading M61 of time course
  Th-T fluorescence, mean of three wells: 1.018
Compound at 20, reading M62 of time course
  Th-T fluorescence, mean of three wells: 1.031
Compound at 50, reading M41 of time course
  Th-T fluorescence, mean of three wells: 0.4483
Compound at 50, reading M42 of time course
  Th-T fluorescence, mean of three wells: 0.4529
Compound at 50, reading M43 of time course
  Th-T fluorescence, mean of three wells: 0.452
Compound at 50, reading M44 of time course
  Th-T fluorescence, mean of three wells: 0.4555
Compound at 50, reading M45 of time course
  Th-T fluorescence, mean of three wells: 0.4534
Compound at 50, reading M46 of time course
  Th-T fluorescence, mean of three wells: 0.4569
Compound at 50, reading M47 of time course
  Th-T fluorescence, mean of three wells: 0.4654
Compound at 50, reading M48 of time course
  Th-T fluorescence, mean of three wells: 0.4625
Compound at 50, reading M49 of time course
  Th-T fluorescence, mean of three wells: 0.4637
Compound at 50, reading M50 of time course
  Th-T fluorescence, mean of three wells: 0.4613
Compound at 50, reading M51 of time course
  Th-T fluorescence, mean of three wells: 0.4698
Compound at 50, reading M52 of time course
  Th-T fluorescence, mean of three wells: 0.4696
Compound at 50, reading M53 of time course
  Th-T fluorescence, mean of three wells: 0.4691
